Laboratory results taken from patent US20130158112A1, “COMPOSITIONS AND METHODS FOR INHIBITING BETA AMYLOID SECRETION” (priority 2011, published 2013).

Key:
H4βAPP695 wt cells = experiment: Cytotoxicity by total cell protein content (BCA) of H4βAPP695 wt cells; details: cytotoxicity
Procedure: Cells were washed with cold phosphate buffered saline (PBS) and lysed on ice by vigorous mixing over 15 min with RIPA buffer containing 50 mM Tris-HCl (pH 8.0), 150 mM sodium chloride, 1% NP-40, 0.5% sodium deoxycholate, and 0.1% SDS, supplemented with 10% protease inhibitor cocktail and 2 mM PMSF. After centrifugation at 14000 g for 30 min to remove nuclei and other debris at 4° C., the protein content of the supernatants was measured using the BCA assay kit (Pierce).
The initial screen was performed in 96-well plates with drugs distributed by the hanging drop method yielding estimated drug levels of 10-25 μM. Total Aβ levels in the 24 h conditioned media were measured by a sandwich ELISA assay, and cytotoxicity was assessed by methylene blue staining of the cells in the wells, as previously described.

Aβ secretion = experiment: Secreted total Aβ ELISA in conditioned media of H4βAPP695 wt cells; type: cell-based, human; details: for inhibition at 10 µM / inhibition at 30 µM: Homo sapiens, 24 h, H4βAPP695 wt cells; for inhibition at 10 µM: read-out: Total Aβ (% decrease) 10 μM Mean; for inhibition at 30 µM: read-out: Total Aβ (% decrease) 30 μM Mean; for Aβ secretion inhibiting activity (structure activity summary): in words
Procedure: H4βAPP695 wt cells, a human […] cell line stably transfected with a wtβAPP695 expression vector construct under the control of a CMV promoter (kindly provided by Dr. Chris Eckman from Mayo Clinic, Florida) were cultured as previously described. Twenty-four hours before drug treatment, the media was replaced with serum-free media. Cells were then incubated with drugs (dissolved in DMSO) or vehicle for 24 h for collection of conditioned media and cell lysates. For the PKC inhibitors experiment, three inhibitors were treated 30 min prior to drug challenge. Primary cortical neurons were prepared from embryonic day 18 APP and presenilin 1 (APPswe, PSEN1dE9) transgenic mice on the C57BL/6 genetic background (Jackson Laboratories, strain no. 5864) as previously described. THLE-3 human hepatoma cells (from ATCC) were plated in 24-well plates that were precoated with 10 μg/mL bovine serum albumin, 10 μg/mL fibronectin, and 30 μg/mL bovine type I collagen. The cells were grown in BEGM media (Clonetics) until confluent and treated with drugs at 20 μM for 24 h. This conditioned media was harvested, diluted 1:1 in serum-free medium, and incubated with H4βAPP695 wt cells for 24 h prior to analysis of secreted Aβ, which was compared to the effect of 10 μM drug treatments without prior incubation with the THLE-3 cells. Caco-2 cells (ATCC) were plated in 12-well plates with Transwell inserts (Costar) at 70000 cells per well and grown for 21 days. The media volume of the apical and basal chambers was 0.5 and 1.5 mL, respectively. Transepithelial resistance was measured in each well and found to be >160 Ω/cm^2. Drugs at 40 μM and 20 μg/mL of lucifer yellow were added in serum-free medium to the apical chamber. Four hours later, the basal chamber media was harvested and used to measure lucifer yellow fluorescence to confirm monolayer integrity as well as for treatment of H4βAPP695 wt cells for 24 h prior to analysis of secreted Aβ, which was compared to the effect of direct addition of 10 μM of the corresponding drug.

| melting point | Structure (SMILES) | Cell protein (% decrease) 10 μM Mean (H4βAPP695 wt cells) | Cell protein (% decrease) 30 μM Mean (H4βAPP695 wt cells) | inhibition at 10 µM (Aβ secretion) | inhibition at 30 µM (Aβ secretion) | Aβ secretion inhibiting activity (structure activity summary) (Aβ secretion) |
| --- | --- | --- | --- | --- | --- | --- |
| 58 to 59 °C | COc1cccc(CSCCNC(=O)c2c(Cl)cccc2OC)c1 [Compound 42, 2-Chloro-6-methoxy-N-[2-(3-methoxy-benzylsulfanyl)-ethyl]-benzamide] | 1.9% | 9.3% | -2.9% | -4.7% |  |
| 42 to 43 °C | O=C(NC1CC1)c1cccc(CSCCNC(=O)c2c(Cl)cccc2Cl)c1 [Compound 68, 2,6-Dichloro-N-[2-(3-cyclopropylcarbamoyl-benzylsulfanyl)-ethyl]-benzamide] | 0% | −1% | 1.9% | 11% | did not yield good activity |
| 70 to 72 °C | O=C(NCCOCc1cccc(Cl)c1)c1c(Cl)cccc1Cl [Compound 72, 2,6-Dichloro-N-[2-(3-chloro-benzyloxy)-ethyl]-benzamide] | −9.9% | 4.2% | 10.5% | -5.1% | No tested substitutions in the linker region were well tolerated |
| 54 to 55 °C | O=C(NCCSCc1cccc(C(F)(F)F)c1)c1c(Cl)cccc1Cl [Compound 50, 2,6-Dichloro-N-[2-(3-trifluoromethyl-benzylsulfanyl)-ethyl]-benzamide] | 19% |  |  | 93.4% | good activity |
| 70 to 72 °C | O=C(NCCSCc1cccc(F)c1)c1c(Cl)cccc1Cl [Compound 47, 2,6-Dichloro-N-[2-(3-fluoro-benzylsulfanyl)-ethyl]-benzamide] | 2.6% | 3.7% | 10.2% | 36.1% | did not yield good activity |
| 70 to 72 °C | O=C(NCCSCc1cccc(Br)c1)c1c(Br)cccc1Br [Compound 55, 2,6-Dibromo-N-[2-(3-bromo-benzylsulfanyl)-ethyl]-benzamide] | 9.8% | 23.9% |  | 87.3% | maintained activity |
| 148 to 150 °C | NC(=O)c1cccc(CSCCNC(=O)c2c(Cl)cccc2Cl)c1 [Compound 45, N-[2-(3-Carbamoyl-benzylsulfanyl)-ethyl]-2,6-dichloro-benzamide] | −2.8% | −8.6% | 6.2% | 32.3% | did not yield good activity |
| 76 to 78 °C | O=C(NCCSCc1cccc([N+](=O)[O-])c1)c1c(Cl)cccc1Cl [Compound 40, 2,6-Dichloro-N-[2-(3-nitro-benzylsulfanyl)-ethyl]-benzamide] | 7.5% | 24.6% | > 50% | 72.5% | good activity |
| 61 to 62 °C | O=C(NCCSCc1cccc(O)c1)c1c(O)cccc1O [Compound 35, 2,6-Dihydroxy-N-[2-(3-hydroxy-benzylsulfanyl)-ethyl]-benzamide] | 10.5% | 14.3% | -22.5% | -25.2% | not well tolerated |
| 39 to 41 °C | O=C(NCCSCc1cccc(F)c1)c1c(F)cccc1F [Compound 46, 2,6-Difluoro-N-[2-(3-fluoro-benzylsulfanyl)-ethyl]-benzamide] | 0.1% | 1.8% | -16.8% | -15.5% |  |
| 138 to 140 °C | O=C(NCCSCc1ccc(O)cc1)c1c(Cl)cccc1Cl [Compound 28, 2,6-Dichloro-N-[2-(4-hydroxy-benzylsulfanyl)-ethyl]-benzamide] | 8.7% | 4.4% | 13.1% | 56.7% | loss of activity |
| 41 to 43 °C | O=C(NCCSCc1cccc(Cl)c1)c1c(F)cccc1F [Compound 67, N-[2-(3-Chloro-benzylsulfanyl)-ethyl]-2,6-difluoro-benzamide] | 5.1% | 8.1% | 4.9% | 21.6% | not well tolerated |
| 63 to 65 °C | O=Cc1cccc(CSCCNC(=O)c2c(Cl)cccc2Cl)c1 [Compound 49, 2,6-Dichloro-N-[2-(3-formyl-benzylsulfanyl)-ethyl]-benzamide] | 1.5% | −2.1% | 19.9% | 36.4% | did not yield good activity |
| 165 to 166 °C | O=C(O)c1cccc(CSCCNC(=O)c2c(Cl)cccc2Cl)c1 [Compound 44, 3-[2-(2,6-Dichloro-benzoylamino)-ethylsulfanylmethyl]-benzoic Acid] | 7.1% | 3.2% | -11.4% | -3.8% | did not yield good activity |
| 165 to 166 °C | O=C(NCC[S+]([O-])Cc1cccc(O)c1)c1c(Cl)cccc1Cl (stereo not drawn) [Compound 33, 2,6-Dichloro-N-[2-(3-hydroxy-phenylmethanesulfinyl)-ethyl]-benzamide] | 2.8% | 4.4% | -23.7% | 15.9% | No tested substitutions in the linker region were well tolerated |
| 74 to 76 °C | O=C(NCCSCc1cccc(Br)c1)c1c(Cl)cccc1Cl [Compound 51, N-[2-(3-Bromo-benzylsulfanyl)-ethyl]-2,6-dichloro-benzamide] | 12.3% | 38.6% |  | 90.1% | good activity |
| 55 to 57 °C | O=C(NCCSCc1cc(O)cc(O)c1)c1c(Cl)cccc1Cl [Compound 59, 2,6-Dichloro-N-[2-(3,5-dihydroxy-benzylsulfanyl)-ethyl]-benzamide] | −0.4% | −0.7% | 3.1% | 17.2% | lost activity |
| 156 to 158 °C | O=C(NCCS(=O)(=O)Cc1cccc(Cl)c1)c1c(Cl)cccc1Cl [Compound 66, 2,6-Dichloro-N-[2-(3-chloro-phenylmethanesulfonyl)-ethyl]-benzamide] | −2.2% | −3.8% | 8.9% | 9.3% | No tested substitutions in the linker region were well tolerated |
| 75 to 76 °C | O=C(NCCSCc1cccc(Cl)c1)c1ccccc1 [Compound 63, N-[2-(3-Chloro-benzylsulfanyl)-ethyl]-benzamide] | 2.4% | −4.5% | 0.3% | 10.7% | not well tolerated |
| 46 to 47 °C | COc1cc(CSCCNC(=O)c2c(Cl)cccc2Cl)cc(OC)c1 [Compound 60, 2,6-Dichloro-N-[2-(3,5-dimethoxy-benzylsulfanyl)-ethyl]-benzamide] | 2% | −8.7% | 47.9% | 80.4% | could be tolerated |
